Assay results reported in patent US20260103474A1, “NOVEL COMPOUNDS FOR THE DIAGNOSIS OF TDP-43 PROTEINOPATHIES” (AC IMMUNE SA, priority 2022, published 2026).
Like-named read-outs stand apart in the source and are kept apart here.

Key:
[1] = target: T1, Human brain derived TDP-43 aggregates (Homo sapiens, UniProt Q13148); assay: Micro-radiobinding competition assay for binding affinity to TDP-43; conditions: for Ki: 0.24 nM to 2 μM vs tritiated reference ligand at 40 nM; for Human brain derived TDP-43 aggregates Mean % competition at 250 nM: non-radiolabeled compound at 250 nM vs tritiated reference ligand at 40 nM; for Human brain derived TDP-43 aggregates Mean % competition at 250 nM / Human brain derived TDP-43 aggregates Mean % competition at 2 μM: FTD sarkosyl-insoluble brain extracts; for Human brain derived TDP-43 aggregates Mean % competition at 2 μM: non-radiolabeled compound at 2 μM vs tritiated reference ligand at 40 nM
T1 construct: Human FTD sarkosyl-insoluble brain extracts were spotted onto microarray slides
Experimental: Human brain extracts were prepared as described in Laferriere et al., 2019, Nature Neurosc. A sample of brain tissue (frontal or temporal cortex) was homogenized at 1:4 (w/v) ratio in the homogenization-solubilization (HS) buffer at 4° C. using tissue homogenizer (Precellys) with CKmix homogenization tubes. The following sequence was used for homogenization: 3 cycles of 30 seconds at 5000 rpm (with 15 seconds pause between each cycle). Homogenized samples were aliquoted and stored at −80° C. in 1.5 mL low protein binding tubes.
Brain homogenates were thawed on ice and resuspended in HS buffer to obtain a final concentration of 2% sarkosyl, 1 unit/μL Benzonase and 1 mM MgCl2. The samples were then incubated at 37° C. under constant shaking at 600 rpm on a thermomixer for 45 minutes (min). The supernatants were collected in a new tube (sarkosyl-soluble fraction, S1). The pellet was resuspended in 1000 μL of myelin floatation buffer and centrifuged at 20,000 g for 60 min at 4° C. The supernatant was carefully removed to remove all the floating lipids. This step was repeated if all the lipids could not be removed in a single step. The pellet was subsequently washed with Phosphate-Buffered Saline (PBS) and centrifuged for 30 min at 20,000 g at 4° C. The final pellet was resuspended in 200 μL PBS and stored at −80° C. (sarkosyl-insoluble fraction). The samples were analyzed by immunoblotting in denaturing conditions.
Human FTD sarkosyl-insoluble brain extracts were spotted onto microarray slides. The slides were incubated with a tritiated reference ligand at 40 nM, and the example compounds (non-radiolabeled) at 2 μM and 250 nM. […] After incubation, slides were washed and scanned by a real-time autoradiography system (BeaQuant, ai4R). Quantification of the signal was performed by using the Beamage image analysis software (ai4R). Non-specific signal was determined with an excess of non-radiolabeled reference compound (2 μM) and specific binding was calculated by subtracting the non-specific signal from the total signal. Competition was calculated as percent, where 0% was defined as the specific binding in the presence of vehicle and 100% as the values obtained in the presence of excess of the non-radiolabeled reference compound. Ki values were calculated in GraphPad Prism8 by applying a nonlinear regression curve fit using a one site, specific binding model. Measurements were performed with at least two technical replicates in the two-concentration competition experiment and with one technical replicate in the experiments including a range of concentrations. For compounds tested in more than one experiment, the mean of the replicates or Ki values in independent experiments is reported.

Abeta = target: T2, Abeta (Homo sapiens, UniProt P05067); assay: Radiobinding competition assay using Abeta reference compound on AD insoluble fraction of brain homogenates; type: binding; conditions: against [3H]Abeta reference compound
T2 construct: an AD donor with confirmed burden of Tau and Abeta aggregates; from tissue; host or cells: frontal cortex of a human AD donor, Triton/sucrose-insoluble fraction
Experimental: Approximately 4 g of frozen tissue block from frontal cortex brain region was used from an AD donor with confirmed burden of Tau and Abeta aggregates. The tissue was homogenized in three volumes (1:3 w/v) of high salt buffer (50 mM Tris-HCl pH 7.5, 750 mM NaCl, 5 mM EDTA) supplemented with protease inhibitors (Complete; Roche 11697498001) at 4° C. with a glass Dounce homogenizer. The homogenate was transferred into polycarbonate centrifuge bottles (16×76 mm; Beckman 355603) and centrifuged at 100,000×g (38,000 RPM) in an ultracentrifuge (Beckman, XL100K) for 60 minutes at 4° C. using a pre-cooled 70.1 rotor (Beckman, 342184). Pellets were resuspended in high salt buffer supplemented with 1% Triton X-100 and homogenized at 4° C. with a syringe. The homogenates were centrifuged again at 100,000×g (38,000 RPM, 70.1 rotor) for 60 minutes at 4° C. Pellets were resuspended in high salt buffer supplemented with 1% Triton X-100 and 1 M sucrose and homogenized at 4° C. with a syringe. The homogenates were centrifuged at 100,000×g (38,000 RPM, 70.1 rotor) for 60 minutes at 4° C. The resulting pellets containing insoluble fraction were resuspended in PBS (1:2 w/v relative to starting tissue weight), aliquoted and stored at −80° C. until use.
The reaction was performed in assay buffer (50 mM Tris pH 7.5 in 0.9% NaCl, 0.1% BSA) and incubated for two hours at room temperature (RT). Samples in duplicate were then filtered under vacuum in GF/C filter plates (PerkinElmer) to trap the aggregates with the bound radioligand and washed with 100 μL ice-cold 50 mM Tris pH 7.5. The GF/C filters were then dried and scintillation liquid (UltimateGold, PerkinElmer, 6013151) was added in each well. The filters were analyzed on a Microbeta2 scintillation counter (PerkinElmer). Values for the maximal signal were obtained in the absence of non-radiolabeled compound, while 100% displacement was obtained using 1 μM of non-radiolabeled reference compound. Ki values were calculated by nonlinear regression, using a one site—fit Ki model in Prism V7 (GraphPad).

[2] = cells printed in μM, read-out: Ki on AD brain homogenates
[3] = read-out: Ki (nM) on AD brain homogenates

T2 sequence (P05067 672-713 limits assumed): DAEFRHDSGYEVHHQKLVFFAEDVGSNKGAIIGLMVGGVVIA
T1 sequence (Q13148 261-414 limits assumed): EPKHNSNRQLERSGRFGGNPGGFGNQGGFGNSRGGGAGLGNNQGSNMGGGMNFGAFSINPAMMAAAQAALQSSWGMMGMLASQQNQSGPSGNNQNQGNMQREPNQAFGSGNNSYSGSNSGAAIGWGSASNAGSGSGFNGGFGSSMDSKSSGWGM

Structure (SMILES)	Ki [1] [nM]	Human brain derived TDP-43 aggregates Mean % competition at 250 nM [1] [%]	Human brain derived TDP-43 aggregates Mean % competition at 2 μM [1] [%]	Ki (Abeta; [2]) [µM]	Ki (Abeta; [3]) [µM]
O=C1c2sc(-c3ccc(N4CC[C@H](F)C4)nc3F)nc2CCN1c1ccnnc1 [Compound 36]	7	66	75		
O=C1c2sc(-c3ccc(N4CC[C@@H](F)C4)nc3F)nc2CCN1c1cnsc1 [Compound 22]	54	68	100		
Cn1cc(N2CCc3nc(-c4ccc(N5CC[C@@H](F)C5)nc4F)sc3C2=O)cn1 [Compound 11]		73	102		
O=C1c2sc(-c3ccc(N4CCC[C@H](F)C4)nc3F)nc2CCN1c1ncccn1 [Compound 35]	49	55	70	> 1	
O=C1c2sc(-c3ccc(N4CC[C@H](F)C4)nc3F)nc2CCN1c1ncccn1 [Compound 16]	5	67	96	> 1	
O=C1c2sc(-c3ccc(N4CCCC4)nc3F)nc2CCN1c1cccnc1 [Compound 9, 2-(2-fluoro-6-(pyrrolidin-1-yl)pyridin-3-yl)-5-(pyridin-3-yl)-6,7-dihydrothiazolo[5,4-c]pyridin-4(5H)-one]	31	62	75	> 1	
O=C1c2sc(-c3ccc(N4CCC[C@H](F)C4)nc3F)nc2CCN1c1cnsc1 [Compound 27, (S)-2-(2-fluoro-6-(3-fluoropiperidin-1-yl)pyridin-3-yl)-5-(isothiazol-4-yl)-6,7-dihydrothiazolo[5,4-c]pyridin-4(5H)-one]	48	57	94	> 1	
N#Cc1c(N)cccc1N1CCc2nc(-c3ccc(N4CC[C@@H](F)C4)nc3F)sc2C1=O [Compound 34]	5	60	77	> 1	
N#Cc1c(N)cccc1N1CCc2nc(-c3ccc(N4CCC[C@@H](F)C4)nc3F)sc2C1=O [Compound 30]	7	66	93		
O=C1c2sc(-c3ccc(N4CC[C@@H](F)C4)nc3F)nc2CCN1c1cscn1 [Compound 33]	36	60	86		
Cn1cc(N2CCc3nc(-c4ccc(N5CCCC5)nc4F)sc3C2=O)cn1 [Compound 21]	30	46	85		
O=C1c2sc(-c3ccc(N4CCCC4)nc3F)nc2CCN1c1ccncc1 [Compound 14]		48	34		
O=C1c2sc(-c3ccc(N4CCCCC4)nc3F)nc2CCN1c1ccnc(F)c1 [Compound 23, 2-(2-fluoro-6-(piperidin-1-yl)pyridin-3-yl)-5-(2-fluoropyridin-4-yl)-6,7-dihydrothiazolo[5,4-c]pyridin-4(5H)-one]	25	73	104	> 1	
O=C1c2sc(-c3ccc(N4CC[C@@H](F)C4)nc3F)nc2CCN1c1ccncc1 [Example 7]	51	51	73	> 1	
O=C1c2sc(-c3ccc(N4CC[C@@H](F)C4)nc3F)nc2CCN1c1ncccn1 [Compound 15, 2-[2-fluoro-6-[(3R)-3-fluoropyrrolidin-1-yl]-3-pyridyl]-5-pyrimidin-2-yl-6,7-dihydrothiazolo[5,4-c]pyridine-4-one]	11	62	86	> 1	
Nc1cc(N2CCc3nc(-c4ccc(N5CC[C@H](F)C5)nc4F)sc3C2=O)ccn1 [Compound 26]	13	55	91		0.318
O=C1c2sc(-c3ccc(N4CCCC4)nc3F)nc2CCN1c1ccc(F)nc1 [Compound 12]		56	59		
O=C1c2sc(-c3ccc(N4CC[C@@H](F)C4)nc3F)nc2CCN1c1cncnc1 [Compound 13]		57	84	> 1	
O=C1c2sc(-c3ccc(N4CCC[C@@H](F)C4)nc3F)nc2CCN1c1cnsc1 [Compound 24, (R)-2-(2-fluoro-6-(3-fluoropiperidin-1-yl)pyridin-3-yl)-5-(isothiazol-4-yl)-6,7-dihydrothiazolo[5,4-c]pyridin-4(5H)-one]	65	61	83	> 1	
Nc1cc(N2CCc3nc(-c4ccc(N5CCCC5)nc4F)sc3C2=O)ccc1F [Compound 10, 5-(3-amino-4-fluorophenyl)-2-(2-fluoro-6-(pyrrolidin-1-yl)pyridin-3-yl)-6,7-dihydrothiazolo[5,4-c]pyridin-4(5H)-one]	16	52	75		0.35
N#Cc1c(N)cccc1N1CCc2nc(-c3ccc(N4CC[C@H](F)C4)nc3F)sc2C1=O [Compound 32]	4	65	80	> 1	
O=C1c2sc(-c3ccc(N4CC[C@H](F)C4)nc3F)nc2CCN1c1cnsc1 [Compound 25, (S)-2-(2-fluoro-6-(3-fluoropyrrolidin-1-yl)pyridin-3-yl)-5-(isothiazol-4-yl)-6,7-dihydrothiazolo[5,4-c]pyridin-4(5H)-one]	48	78	96	> 1	
